The values below come from patent publication US12162864B2, “Condensed-cyclic compound” (Takeda Pharmaceutical Company Limited, priority 2018, dated 2024).

pEC50: −log10 of the molar value.

For series [1], the target named is T1, human M1 receptor (Homo sapiens, UniProt P11229).
T1 construct: expressed in transfected cells; host or cells: CHO-K1
T1 sequence (P11229 1-460): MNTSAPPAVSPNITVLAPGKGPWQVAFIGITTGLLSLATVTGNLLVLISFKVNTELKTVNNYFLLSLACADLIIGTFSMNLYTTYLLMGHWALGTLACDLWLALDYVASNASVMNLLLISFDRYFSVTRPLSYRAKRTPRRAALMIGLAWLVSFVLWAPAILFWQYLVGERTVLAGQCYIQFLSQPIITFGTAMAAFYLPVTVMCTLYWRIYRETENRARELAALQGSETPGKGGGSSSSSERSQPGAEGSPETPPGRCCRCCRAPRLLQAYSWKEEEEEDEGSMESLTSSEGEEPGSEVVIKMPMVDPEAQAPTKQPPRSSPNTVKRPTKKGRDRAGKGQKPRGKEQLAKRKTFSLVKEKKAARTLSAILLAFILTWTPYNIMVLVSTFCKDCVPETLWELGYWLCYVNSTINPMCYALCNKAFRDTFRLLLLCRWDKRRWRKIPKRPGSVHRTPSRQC
Description: Measurement of M1 receptor positive allosteric modulator (M1PAM) activity. The format is cell-based. Conditions: PAM activity in presence of acetylcholine at EC20 concentration; CHO-K1 cells stably expressing human M1 receptor; IP1 time-resolved fluorescence. As to the method:
Measurement of M1 Receptor Positive Allosteric Modulator (M1PAM) Activity
The activity of a test compound in the presence of acetylcholine at an EC20 concentration affording about 20% action of the maximum activity was measured as PAM activity. The method therefor is as follows. To a 384-well white plate (Greiner™) was added 4 μL of the test compound diluted with IP1 Stimulation buffer (CisBio™) containing 0.1% fatty acid-free BSA containing 80 nM acetylcholine. Freeze stock of CHO-K1 cells stably expressing human M1 receptor (hCHRMl) was prepared with IP1 Stimulation buffer (CisBio™) containing 0.1% fatty acid-free BSA, 4 μL thereof was added (10,000 cells/well) and the mixture was cultured in a 5% CO2 incubator at 37° C. for 1 hr. 4 μL of a solution (CisBio™) containing IP1-d2 and Anti-IP1-cryptate Tb conjugate was added the mixture was incubated at room temperature for 1 hr, and the time-resolved fluorescence signal was measured on an Envision plate reader (Perkin Elmer™). The activity (%) of the test compound was calculated by defining the value when acetylcholine was added at the final concentration of 20 μM as 100% and the value when DMSO was added instead of the test compound under acetylcholine-free conditions as 0%, and the EC50 value was calculated as a value of 50% of the concentration dependence curve of the test compound.

The target of series [2] is T2, MDR1 (Homo sapiens, UniProt P08183).
T2 construct: expressed in transfected cells
The series is described as follows: MDR1 membrane permeability test. The format is in vitro ADME. Conditions: pH 7.4, human MDR1-expressing LLC-PK1 cells, 10 μmol/L test compound, read-out: Efflux ratio (ER). As to the method:
MDR1 Membrane Permeability Test
When MDR1 is expressed in excess in LLC-PK1 cell, which is a polar cell, MDR1 is localized in apical membrane (A), thus promoting transcellular transport from the basement membrane side (B) toward direction A. When a ratio to the transcellular transport in the opposite direction is taken and a ratio to a control cell in which a mock vector has been introduced is further taken, an efflux ratio of MDR1 to simple diffusion (corrected efflux ratio) is calculated. Similarly, when a brain/plasma concentration ratio in Mdr1(−/−) mouse is divided by a brain/plasma concentration ratio in wild-type mouse, an efflux ratio of Mdr1 to simple diffusion in blood-brain barrier (BBB) (Kp, brain ratio, higher value means lower central nervous system permeability) is calculated. Adachi Y. et al. (Reference 1) has reported a positive correlation between corrected efflux ratio and Kp, brain ratio (FIG. 5(C)), and efflux ratio in MDR1 expressing cell and Kp, brain ratio (FIG. 5(B)).
To confirm the central nervous system permeability of the compounds of the present invention, a MDR1 membrane permeability test was performed by the following method.
Digoxin and lucifer yellow (LY) were purchased from Sigma-Aldrich™, Diclofenac, colchicine and alprenolol were purchased from Wako Pure Chemical Industries, Ltd., and other reagents used were commercially available products of special grade.
Human MDR1-expressing LLC-PK1 cells were cultured according to the report of Takeuchi et al. (Reference 2). Human MDR1-expressing LLC-PK1 cells were cultured in 10% fetal bovine serum (Invitrogen™), 500 μg/ml G418 (Invitrogen™), 150 ng/ml colchicine-containing M199 medium (Invitrogen™) under 5% CO2 conditions at 37° C.
Transcellular transport was performed according to the report of Sugimoto et al. (Reference 3). The cells were cultured for 3 days on HTS Transwell™ (registered trademark) 96 well permeable support (pore size 0.4 μm, 0.143 cm^2 surface area, Corning Life Sciences) having polyethylene terephthalate membrane on which the cells had been seeded at 3.45×10^4 cells/well. After preincubation in M199 medium (containing 10 mmol/L HEPES, 1% BSA, pH 7.4) for 30 min, a drug solution (10 μmol/L digoxin, 200 μmol/L LY, 10 μmol/L test compound) dissolved in M199 medium was added to the apical side or basolateral side of the Transwell™ by 75 or 250 μL each and the cells were cultured under 5% CO2 conditions at 37° C. After 1 hr, the sample was collected from the side opposite to the side where the drug solution was added, and the concentration of the test compound was measured by LC-MS/MS. As an internal standard substance, 100 ng/mL alprenolol and diclofenac were used. The analysis conditions were as follows. • LC: UFLC LC-20 (Shimadzu™) • MS/MS: API4000 (AB Sciex™ Instruments) • LC condition: gradient method
• Column: Unison UK-C18 HT (3.0 μm, 2.0×20 mm) • Column temperature: 50° C. • Flow rate: 0.7 mL/min (for 1.5 min run), 1.0 mL/min (for 1.0 min run) • Mobile phase A: 50 mM CH3COONH4:MeCN:water=1:1:8 • Mobile phase B: 50 mM CH3COONH4:MeCN=1:9 • Injection volume: 1-20 μL
LY was measured by a fluorescence plate reader (Fluoroskan Ascent FL).
Papp, A to B and Papp, B to A (apparent permeability) were calculated from the formula (1), and the efflux ratio (ER) was calculated from the formula (2).
[formula] • Amount: amount of transported digoxin/well • Area: surface area of cell monolayer (0.143 cm^2) • C0: concentration of drug solution added • Time: incubation time

Series [3] concerns Male SD rats. The series is described as follows: Rat defecation experiment. The format is in vivo. The settings on record: oral, mean±standard error. As to the method: Rat Defecation Experiment
Male SD rats (5-6 weeks old) were used after an acclimation period for about 1 week. A test drug (1 mg/kg or 3 mg/kg) was suspended in 0.5% methylcellulose solution and orally administered at a volume of 5 mL/kg, and the number of feces for 2 hr later was counted. Only 0.5% methylcellulose was administered to a solvent administration group.

T2 sequence (P08183 whole entry): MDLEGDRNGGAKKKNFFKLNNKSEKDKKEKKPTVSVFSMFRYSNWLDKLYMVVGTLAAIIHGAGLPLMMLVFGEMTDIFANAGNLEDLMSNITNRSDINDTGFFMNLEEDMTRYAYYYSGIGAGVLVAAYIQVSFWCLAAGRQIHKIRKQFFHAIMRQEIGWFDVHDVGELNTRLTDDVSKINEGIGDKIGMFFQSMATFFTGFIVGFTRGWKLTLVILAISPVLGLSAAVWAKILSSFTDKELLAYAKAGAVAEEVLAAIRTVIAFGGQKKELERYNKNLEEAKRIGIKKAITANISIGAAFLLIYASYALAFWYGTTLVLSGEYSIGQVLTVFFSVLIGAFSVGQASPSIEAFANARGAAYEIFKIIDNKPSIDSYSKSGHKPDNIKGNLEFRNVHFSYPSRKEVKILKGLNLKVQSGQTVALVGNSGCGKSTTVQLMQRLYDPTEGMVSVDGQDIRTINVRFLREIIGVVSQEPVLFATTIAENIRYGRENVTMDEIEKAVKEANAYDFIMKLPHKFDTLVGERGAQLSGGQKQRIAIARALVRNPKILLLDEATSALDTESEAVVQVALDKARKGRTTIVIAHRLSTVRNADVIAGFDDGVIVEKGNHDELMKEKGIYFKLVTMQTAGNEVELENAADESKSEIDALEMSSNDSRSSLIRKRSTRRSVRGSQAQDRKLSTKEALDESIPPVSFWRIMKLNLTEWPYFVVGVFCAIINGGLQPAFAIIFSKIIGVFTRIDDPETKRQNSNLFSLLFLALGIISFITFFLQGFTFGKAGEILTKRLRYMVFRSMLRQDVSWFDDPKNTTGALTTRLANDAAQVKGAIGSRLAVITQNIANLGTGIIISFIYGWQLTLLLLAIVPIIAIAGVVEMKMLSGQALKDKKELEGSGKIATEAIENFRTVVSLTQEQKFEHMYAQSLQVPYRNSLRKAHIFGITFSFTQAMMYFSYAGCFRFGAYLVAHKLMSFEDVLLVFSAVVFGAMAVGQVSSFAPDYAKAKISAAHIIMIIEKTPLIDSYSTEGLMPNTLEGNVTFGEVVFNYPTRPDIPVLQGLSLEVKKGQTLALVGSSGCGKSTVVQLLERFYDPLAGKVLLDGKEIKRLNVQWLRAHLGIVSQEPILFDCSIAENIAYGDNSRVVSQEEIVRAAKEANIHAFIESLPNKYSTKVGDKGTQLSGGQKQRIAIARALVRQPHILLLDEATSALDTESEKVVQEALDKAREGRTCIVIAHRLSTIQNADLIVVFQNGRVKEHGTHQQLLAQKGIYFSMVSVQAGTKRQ

The pEC50 is −log10 of the EC50, conventionally taken in molar units. Consider `Cn1cnc(-c2ccc(Cc3cc(C(=O)N[C@H]4CCOC[C@@H]4O)c(F)c4c3OCC4)cc2)c1` [Example 5, 1,5-anhydro-2,3-dideoxy-3-(((4-fluoro-7-(4-(1-methyl-1H-imidazol-4-yl)benzyl)-2,3-dihydro-1-benzofuran-5-yl)carbonyl)amino)-L-threo-pentitol], for which, in series [1], the pEC50 is 8.43. The efflux ratio at 1 h, 10 μmol/L in series [2] was found to be 7.3. The “number of feces 2 hr later” value in series [3] (1 mg/kg) is 6.3 ± 0.7; in series [3] (3 mg/kg), 8.7 ± 1.2.

Regarding `Cn1cc(-c2ccc(Cc3cc(C(=O)N[C@H]4CCOC[C@@H]4O)c(F)c4c3OCC4)cn2)cn1` [Example 6, 1,5-anhydro-2,3-dideoxy-3-(((4-fluoro-7-((6-(1-methyl-1H-pyrazol-4-yl)pyridin-3-yl)methyl)-2,3-dihydro-1-benzofuran-5-yl)carbonyl)amino)-L-threo-pentitol], in series [1], the negative-log EC50 (pEC50) is 8.70. In addition, the efflux ratio at 1 h, 10 μmol/L in series [2] is 18. The “number of feces 2 hr later” value in series [3] (1 mg/kg) is on record as 6.6 ± 0.9.

`COCCNC(=O)c1ccc(Cc2cc(C(=O)N[C@H]3CCOC[C@@H]3O)c(F)c3c2OCC3)cc1F` [Example 13, 1,5-anhydro-2,3-dideoxy-3-(((4-fluoro-7-(3-fluoro-4-((2-methoxyethyl)carbamoyl)benzyl)-2,3-dihydro-1-benzofuran-5-yl)carbonyl)amino)-L-threo-pentitol]: the pEC50 in series [1] is 8.38. In addition, the efflux ratio at 1 h, 10 μmol/L in series [2] was 10. Further, in series [3] (1 mg/kg), the “number of feces 2 hr later” value was 9.9 ± 1.6.

Take `CCOCCNC(=O)c1ccc(Cc2cc(C(=O)N[C@H]3CCOC[C@@H]3O)c(F)c3c2OCC3)cc1F` [Example 14, 1,5-anhydro-2,3-dideoxy-3-(((7-(4-((2-ethoxyethyl)carbamoyl)-3-fluorobenzyl)-4-fluoro-2,3-dihydro-1-benzofuran-5-yl)carbonyl)amino)-L-threo-pentitol]: in series [1], the pEC50 was 7.70. Further, the efflux ratio at 1 h, 10 μmol/L in series [2] worked out at 9.3. The figures for the “number of feces 2 hr later” value in series [3] (1 mg/kg) and in series [3] (3 mg/kg) were 6.8 ± 1.3 and 10.4 ± 1.1, respectively.

`CNC(=O)c1ccc(Cc2cc(C(=O)N[C@H]3CCOC[C@@H]3O)c(OC)c3c2OCC3)cc1F` [Example 31, 1,5-anhydro-2,3-dideoxy-3-(((7-(3-fluoro-4-(methylcarbamoyl)benzyl)-4-methoxy-2,3-dihydro-1-benzofuran-5-yl)carbonyl)amino)-L-threo-pentitol]: the negative-log EC50 (pEC50) in series [1] was 7.74. Further, the efflux ratio at 1 h, 10 μmol/L in series [2] is 28. Besides, in series [3] (1 mg/kg), the “number of feces 2 hr later” value is reported as 5.9 ± 0.9.

Regarding `COCCCNC(=O)c1ccc(Cc2cc(C(=O)N[C@H]3CCOC[C@@H]3O)c(OC)c3c2CCC3)cc1F` [Example 60, 1,5-anhydro-2,3-dideoxy-3-(((7-(3-fluoro-4-((3-methoxypropyl)carbamoyl)benzyl)-4-methoxy-2,3-dihydro-1H-inden-5-yl)carbonyl)amino)-L-threo-pentitol], the pEC50 in series [1] was 7.77. In series [2], the efflux ratio at 1 h, 10 μmol/L was determined as 15. Further, the figures for the “number of feces 2 hr later” value in series [3] (1 mg/kg) and in series [3] (3 mg/kg) were 6.9 ± 1.2 and 11.4 ± 1.2, respectively.
